Laboratory results as given in paper PMC3038857, “Using Nuclear Receptor Activity to Stratify Hepatocarcinogens” (PLoS ONE, 2011).
Where two headings read alike, the source gives them in different places.

Assays:
ABCB1 = assay: CLZD_ABCB1: Change in expression of ABCB1 (primary human hepatocytes); assay type: cell-based; conditions: 24 hr
Summary of the method: (§1)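 Chemicals are tested in human hepatocyte primary cultures over 0.004-40 µM (5 concentrations) for 6, 24 or 48 hr, and concentration- and time-dependent transcript changes are read by quantitative nuclease protection assay.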

ABCB11 = assay: CLZD_ABCB11: Change in expression of ABCB11 (primary human hepatocytes); assay type: cell-based; conditions: 24 hr
Description: This is a collection of multiplexed gene expression assays focused on Phase I and II xenobiotic metabolizing enzymes and transporters. Human primary cell cultures were treated with chemicals at 5 concentrations (0.004-40 [drawing 42] M) for 6, 24 and 48 hr. Concentration- and time-response profiles of chemicals were measured by the expression of key nuclear receptor target genes, activities of CYP1A enzymes (EROD), and cell morphology. Fourteen gene targets were monitored by quantitative nuclease protection assay including: six representative cytochrome P-450 genes, four hepatic transporters, three Phase II conjugating enzymes, and one endogenous metabolism gene involved in cholesterol synthesis. The target genes associated with nuclear receptor pathways are as follows: [drawing 43] and [drawing 44] with [drawing 45]; [drawing 46] , [drawing 47] , [drawing 48] , [drawing 49] , [drawing 50] and [drawing 51] with [drawing 52]; [drawing 53] , [drawing 54] , [drawing 55] and [drawing 56] with [drawing 57]; [drawing 58] with [drawing 59]; and [drawing 60] with [drawing 61] . Assays were run in primary human hepatocyte cultures by CellzDirect Invitrogen Inc. (Durham, NC), in collaboration with EPA.
Multiplexed Gene Expression in Human Primary Hepatocytes: This is a collection of multiplexed gene expression assays focused on Phase I and II metabolic enzymes and transporters. […] Fourteen gene targets were monitored by quantitative nuclease protection assay: six representative cytochrome P450 genes, four hepatic transporters, three Phase II conjugating enzymes, and one endogenous metabolism gene involved in cholesterol synthesis. Cells were exposed at 5 concentrations (0.004-40 µM) for 6, 24 or 48 hr. Gene targets are sentinels for five nuclear receptor signaling pathways: AhR, CAR, PXR, FXR, and PPARα. All gene are associated with nuclear receptor pathways: CYP1A1 and CYP1A2 with AHR; ABCB1, ABCG2, CYP2B6, CYP2C9, CYP2C19 and UGT1A1 with CAR; CYP3A4, GSTA2, SLCO1B1 and SULT2A1 with PXR; HMGCS2 with PPARA; and ABCB11 with FXR. […] Detailed description of the methods, data and analysis methods for this dataset will be presented in a separate publication.

CYP1A1 = assay: CLZD_CYP1A1: Change in expression of CYP1A1 (primary human hepatocytes); assay type: cell-based; conditions: 24 hr
Summary of the method: as §1

CYP2B6 = assay: CLZD_CYP2B6: Change in expression of CYP2B6 (primary human hepatocytes); assay type: cell-based; conditions: 24 hr
Summary of the method: as §1

PXR Human (NR1I2) = target: T1, PXR Human (NR1I2) (Homo sapiens, UniProt O75469); assay: NCGC_PXR_Agonist_human: GAL4 BLAM Reporter gene assay: PXR Human; assay type: cell-based; conditions: agonist mode
T1 sequence (O75469 146-434 limits assumed): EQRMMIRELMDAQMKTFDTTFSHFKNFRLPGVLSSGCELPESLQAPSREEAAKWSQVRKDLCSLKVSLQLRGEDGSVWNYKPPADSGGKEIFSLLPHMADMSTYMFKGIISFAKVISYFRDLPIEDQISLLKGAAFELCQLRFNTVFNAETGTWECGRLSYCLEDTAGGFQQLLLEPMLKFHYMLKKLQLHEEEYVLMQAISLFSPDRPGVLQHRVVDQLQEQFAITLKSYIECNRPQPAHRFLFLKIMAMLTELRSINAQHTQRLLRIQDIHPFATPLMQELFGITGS
Summary of the method: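 Tox21 cell-based screens at NCGC using GAL4-fused receptor beta-lactamase reporters. Responses active only at the top concentration (above 50%) were discarded, and fits needed R^2 of at least 0.5.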

Rat Liver [1] = conditions: ref ToxRefDB, cited from earlier work
Rat Liver [2] = conditions: ref ToxRefDB, cited from earlier work; remark: listed apart in the source
Rat Liver [3] = conditions: ref ToxRefDB, cited from earlier work; remark: listed apart in the source
CAR (NR1I3) = target: T2, CAR (NR1I3) (Homo sapiens, UniProt Q14994); assay: ATG_PBREM_CIS: Factorial reporter gene assay (HepG2); assay type: cell-based; parameters: endogenous in cells; host or cells: HepG2; conditions: HepG2 reporter
T2 sequence (Q14994 1-352): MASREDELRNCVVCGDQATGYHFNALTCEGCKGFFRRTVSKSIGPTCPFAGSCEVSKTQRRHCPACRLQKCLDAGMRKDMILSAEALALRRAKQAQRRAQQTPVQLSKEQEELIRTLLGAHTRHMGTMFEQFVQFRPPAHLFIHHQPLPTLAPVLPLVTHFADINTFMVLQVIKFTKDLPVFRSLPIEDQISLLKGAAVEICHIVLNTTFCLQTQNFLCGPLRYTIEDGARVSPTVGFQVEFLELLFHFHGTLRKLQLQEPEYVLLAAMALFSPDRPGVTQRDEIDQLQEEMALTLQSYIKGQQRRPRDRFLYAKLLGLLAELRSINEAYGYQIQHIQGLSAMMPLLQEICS
Description: A multiple reporter transcription unit (MRTU) library consisting of 48 transcription factor binding sites was transfected into the HepG2 human liver hepatoma cell line. In addition to the cis-acting reporter genes (CIS), a modification of the approach was used to generate a trans-system (TRANS) with a mammalian one-hybrid assay consisting of an additional 25 MRTU library reporting the activity of nuclear receptor super-family members. […] These assays were performed by Attagene Inc. (Morrisville NC) under contract to EPA.
In addition to the cis-acting reporter genes (CIS), a modification of the approach was used to generate a trans-system (TRANS) with a mammalian one-hybrid assay consisting of an additional 25 MRTU library reporting the activity of nuclear receptor super-family members. […] Chemicals were then tested in the CIS and TRANS assays at seven concentrations starting at the MTC and followed by three-fold serial dilutions. These assays were performed by Attagene Inc. (Morrisville NC) under contract to EPA. Detailed description of the methods, data and analysis methods for this dataset will be presented in a separate publication.

[4] = target: T3, PPARG (peroxisome proliferator-activated receptor gamma) (Homo sapiens, UniProt P37231); assay: ATG_PPARg_TRANS: Factorial reporter gene assay (HepG2); assay type: cell-based; conditions: HepG2 reporter
T3 construct: expressed in transfected cells; host or cells: HepG2
T3 sequence (P37231 1-505): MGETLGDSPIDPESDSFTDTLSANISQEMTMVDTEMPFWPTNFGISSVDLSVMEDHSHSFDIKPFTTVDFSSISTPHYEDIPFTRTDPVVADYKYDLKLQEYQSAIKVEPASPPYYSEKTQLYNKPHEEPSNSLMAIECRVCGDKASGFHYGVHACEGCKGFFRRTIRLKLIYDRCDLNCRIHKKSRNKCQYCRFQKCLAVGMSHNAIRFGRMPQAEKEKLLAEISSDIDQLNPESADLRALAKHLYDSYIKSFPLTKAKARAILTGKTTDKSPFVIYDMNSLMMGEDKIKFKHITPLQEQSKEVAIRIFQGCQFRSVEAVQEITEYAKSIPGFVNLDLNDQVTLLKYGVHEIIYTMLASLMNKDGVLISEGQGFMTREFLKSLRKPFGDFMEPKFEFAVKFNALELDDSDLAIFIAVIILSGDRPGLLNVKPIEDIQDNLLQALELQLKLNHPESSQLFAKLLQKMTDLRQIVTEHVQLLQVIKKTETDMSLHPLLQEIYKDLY
Summary of the method: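 Each chemical received seven doses, the first at its MTC, then successive three-fold dilutions. Host cells: HepG2 carrying either cis (PXRE, 48 sites) or trans one-hybrid (ERRg, FXR, PPARg; 25 units) reporter libraries.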

CYP3A4 = assay: CLZD_CYP3A4: Change in expression of CYP3A4 (primary human hepatocytes); assay type: cell-based; conditions: 24 hr
Summary of the method: as §1

PXR (NR1I2) = target: T4, PXR (NR1I2) (Homo sapiens, UniProt O75469); assay: NVS_NR_hPXR: Human PXR Fluormone PXR (SXR) green (cell-free HTS); assay type: binding
T4 sequence (O75469 1-434): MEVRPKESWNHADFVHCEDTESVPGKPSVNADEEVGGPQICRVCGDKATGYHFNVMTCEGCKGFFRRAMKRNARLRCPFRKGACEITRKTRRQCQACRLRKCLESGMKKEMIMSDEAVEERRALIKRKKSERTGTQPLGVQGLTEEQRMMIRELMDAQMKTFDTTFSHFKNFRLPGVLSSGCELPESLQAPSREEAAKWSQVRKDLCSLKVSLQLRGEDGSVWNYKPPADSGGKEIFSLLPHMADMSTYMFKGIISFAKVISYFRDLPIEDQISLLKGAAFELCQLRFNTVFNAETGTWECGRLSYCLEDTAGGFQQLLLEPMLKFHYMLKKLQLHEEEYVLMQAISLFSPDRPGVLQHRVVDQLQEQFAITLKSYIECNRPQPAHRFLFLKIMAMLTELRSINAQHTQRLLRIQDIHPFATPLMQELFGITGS
Summary of the method: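 Cell-free biochemical binding assays; chemicals first screened at a single concentration of 25 […] M in duplicate wells. Signals normalised to same-plate solvent controls as percent of neutral control, and AC50 values came from Hill-equation fits of concentration-response curves.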

Mouse Liver [5] = conditions: chronic study, mouse liver; ref ToxRefDB; cited from earlier work
Mouse Liver [6] = conditions: chronic study, mouse liver; ref ToxRefDB; cited from earlier work; remark: listed apart in the source
Mouse Liver [7] = conditions: chronic study, mouse liver; ref ToxRefDB; cited from earlier work; remark: listed apart in the source
PPARg (PPARG) = target: T5, PPARg (PPARG) (Homo sapiens, UniProt P37231); assay: NCGC_PPARg_Agonist: GAL4 BLAM Reporter gene assay: PPARg; assay type: cell-based; parameters: expressed in transfected cells; host or cells: HEK293; conditions: agonist mode
T5 sequence (P37231 1-505): T3 sequence (P37231 1-505)
Description: (§2) These assays measure binding constants and enzyme inhibition values for nuclear receptors. The targets include [drawing 67] , [drawing 68] , [drawing 69] , [drawing 70] , [drawing 71] , [drawing 72] , [drawing 73] , [drawing 74] , [drawing 75] and [drawing 76] . Each of the nuclear receptor targets was measured in agonist mode. Assays were run at the NIH Chemical Genomics Center (Rockville, MD).
(§3) Cell-based HTS Assays: These assays measuring binding constants and enzyme inhibition values for nuclear receptors. The targets include AR, ER, FXR, LXR, PPARα, PPARδ, PPARγ, RXRα, RXRβ and PXR. Each of the nuclear receptor targets was measured in both agonist and antagonist mode, but the antagonist data is still undergoing analysis due to possible interference between cytotoxicity and assay activity, so antagonist mode data were not used in the present analysis. Assays were run at the NIH Chemical Genomics Center (Rockville, MD) as part of the Tox21 collaboration. […] The R^2 was required to be ≥0.5. Values where only the highest concentration exceeded 50% activity were excluded to eliminate weak or false positives. Detailed description of the methods, data and analysis methods for this dataset will be presented in a separate publication.

RXRa (RXRA) = target: T6, RXRa (RXRA) (Homo sapiens, UniProt P19793); assay: NCGC_RXRa_Agonist: GAL4 BLAM Reporter gene assay: RXRa; assay type: cell-based; conditions: agonist mode
T6 sequence (P19793 227-462 limits assumed): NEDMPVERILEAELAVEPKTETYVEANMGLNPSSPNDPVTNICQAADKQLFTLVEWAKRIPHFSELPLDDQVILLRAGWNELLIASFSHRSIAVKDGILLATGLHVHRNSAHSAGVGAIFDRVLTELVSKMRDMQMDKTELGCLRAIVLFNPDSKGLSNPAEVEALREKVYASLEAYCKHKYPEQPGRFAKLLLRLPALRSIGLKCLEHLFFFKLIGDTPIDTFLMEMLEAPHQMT
Description: as §2, §3

C=C(C)[C@H]1Cc2c(ccc3c2O[C@@H]2COc4cc(OC)c(OC)cc4[C@@H]2C3=O)O1 [r282]
CLZD_ABCB1_24 (ABCB1): 4.54
CLZD_ABCB11_24 (ABCB11): 5.217
CLZD_CYP1A1_24 (CYP1A1): 5.398
CLZD_CYP2B6_24 (CYP2B6): 5.235
NCGC_PXR_Agonist_human (PXR Human (NR1I2)): 4.77
CHR_Rat_Liver_1_AnyLesion (Rat Liver [1]; chronic study, rat liver): 0
CHR_Rat_Liver_2_PreneoplasticLesion (Rat Liver [2]; chronic study, rat liver): 0
CHR_Rat_Liver_3_NeoplasticLesion (Rat Liver [3]; chronic study, rat liver): 0
ATG_PBREM_CIS (CAR (NR1I3)): 6.638

CCC(C)(C)C(=O)OC1=C(c2cc(Cl)cc(Cl)c2)C(=O)OC12CCCCC2 [r285]
ATG_PPARg_TRANS [4]: 5.444
CLZD_CYP3A4_24 (CYP3A4): 6.36
NVS_NR_hPXR (PXR (NR1I2)): 6.367
CHR_Mouse_Liver_1_AnyLesion (Mouse Liver [5]): 6
CHR_Mouse_Liver_2_PreneoplasticLesion (Mouse Liver [6]): 6
CHR_Mouse_Liver_3_NeoplasticLesion (Mouse Liver [7]): 6
CHR_Rat_Liver_1_AnyLesion (Rat Liver [1]; chronic study, rat liver): 6
CHR_Rat_Liver_2_PreneoplasticLesion (Rat Liver [2]; chronic study, rat liver): 6
CHR_Rat_Liver_3_NeoplasticLesion (Rat Liver [3]; chronic study, rat liver): 0
NCGC_PPARg_Agonist (PPARg (PPARG)): 5.556

N#CSCSc1nc2ccccc2s1 [r289]
NCGC_PXR_Agonist_human (PXR Human (NR1I2)): 4.409
NVS_NR_hPXR (PXR (NR1I2)): 6.169
NCGC_PPARg_Agonist (PPARg (PPARG)): 4.706

CS(=O)(=O)c1ccc(C(=O)C2C(=O)CCCC2=O)c([N+](=O)[O-])c1 [row 195]
NCGC_RXRa_Agonist (RXRa (RXRA)): 4.471
CHR_Rat_Liver_1_AnyLesion (Rat Liver [1]; chronic rat study, liver): 6
CHR_Rat_Liver_2_PreneoplasticLesion (Rat Liver [2]; chronic rat study, liver): 0
CHR_Rat_Liver_3_NeoplasticLesion (Rat Liver [3]; chronic rat study, liver): 0
